Source: patent publication US20060159676A1, “Methods for modulating angiogenesis, lymphangiogenesis, and apoptosis with apelin compositions” (priority 2005, published 2006)

Experiments:
[1] = tested on: BAE/APJ#2 cells (bovine aortic endothelial cells expressing mouse APJ); experiment: BAE/APJ#2 endothelial cell proliferation (BrdU incorporation); format: cell-based; settings: SU1498 10 ng/ml
Method: SU1498 was included in proliferation cultures at a concentration of 10 ng/ml and results were assayed using BrdU incorporation. After growth factor incubation, BrdU was added to each well at a final concentration of 10 μM for 2 hours, cells were washed, and fixed for BrdU immunocytochemistry.
Cells were fixed in 100% ice cold methanol at 4° C. for 2 hours to overnight. Prior to staining, cells were air dried and rehydrated for 3 minutes with PBS buffer. DNA was denatured at 37° C. with 2 M HCl, and neutralized with 2 washes for 5 minutes in 0.1 M borate buffer (pH 8.5). […] FITC-labeled anti-BrdU antibody (5 μg/ml) in block was added for 1 hour at room temperature. Cells were counterstained with propidium iodide following several washes in PBS buffer. For each experiment, 4 random fields were photographed for determination of percentage BrdU labeling.

[2] = tested on: mouse endothelial cells (bEnd3); experiment: bEnd3 endothelial cell proliferation (BrdU incorporation); format: cell-based
Method: Similar cellular proliferation assays were performed using mouse endothelial cells (bEnd3) that constitutively express APJ. […] SU1498 was included in proliferation cultures at a 25 μM concentration, and results were assayed using BrdU incorporation.
Proliferation inhibition experiments with the bEnd3 cells also were carried out using FGF (50 ng/ml) or the FGF pathway inhibitor SU5402 (FIG. 19). SU5402 was included in proliferation cultures at a 20 μM concentration, and results were assayed using BrdU incorporation.

apelin expression = experiment: Apelin expression in rat cardiac myocytes under cobalt chloride (hypoxia mimic), PCR; format: cell-based
Method: Because HIF-1α consensus sites are present in the apelin regulatory region, experiments were conducted to determine whether apelin expression is hypoxia responsive and regulated by HIF-1α. Upregulation of apelin expression under hypoxic conditions would be consistent with a role for apelin in promotion of tumor angiogenesis. Preliminary experiments were carried out using primary rat cardiomyocyte cells in culture and treatment with cobalt chloride. This procedure is accepted as an equivalent to culturing cells under hypoxic conditions because HIF-1α is a metal responsive transcription protein (Ladoux and Frelin, 1994; Piret et al., 2002; Maxwell and Salnikow, 2004). Fetal rat cardiac myocytes were plated and cultured in DMEM (Invitrogen, Carlsbad, Calif.) supplemented with 10% fetal calf serum and penicillin/streptomyocin at 37° C. After four days of culture, medium was removed, and cells were treated with fresh media containing 150 μM Cobalt Chloride (Piret et al., 2002). […] After 4 hours of culture, cells were harvested, and total RNA was extracted using the Trizol procedure according to the manufacturers recommendations (Invitrogen, Carlsbad, Calif.).
Following PCR, amplification products were fractionated on an agarose gel and visualized using ethidium bromide staining under ultraviolet light (FIG. 12). […]

BAE/APJ#2 cells = settings: 10 ng/ml in bottom chamber, 16 hours
Method: Bovine aortic endothelial cells (BAE) were cultured in DMEM supplemented with 10% fetal bovine serum (FBS) and penicillin/streptomycin. For generation of stable cell lines expressing APJ, the mouse APJ coding region was cloned into the pcDNA 3.1 vector downstream of the CMV promoter, in frame with a myc epitope at the C-terminal end of the protein, and upstream of the neomycin gene. Bovine aortic endothelial (BAE) cells were transfected with this construction using the Superfect transfection kit (Qiagen) and selected for resistance to G418 (600 μg/ml). Colonies were isolated and screened using RT-PCR for expression of mouse APJ and also by immunocytochemistry for expression of the myc epitope.
Cell migration assays were performed using Transwell cell culture migration chambers (Becton Dickinson) with 8 micron pore size. BAE/APJ#2 cells were plated in serum free conditions in 100 μl at a concentration of 1×10^5 ml in the upper chamber of the migration chamber. Following cell attachment to the membrane, 10 ng/ml of growth factor was added to the bottom chamber, in a total volume of 0.5 ml. […] Cells attached to the membrane in the lower chamber were stained with DAPI, and 3 random fields were counted for each experimental condition.

[3] = tested on: lymphatic endothelial cells; experiment: In vivo lymphatic cell number assay, quail CAM (Prox1 staining); settings: collagen disk with 50 ng apelin or 100 ng VEGF-C on CAM of 7 day quail embryos, 18 hours
Method: All experiments were carried out using chorioallantoic membranes (CAMs) of quail embryos. Quail embryos used for the lymphatic experiments were 7 days old. Collagen purified from rat tails (Bernanke and Markwald, 1982) was polymerized in 2 mm disks at a final concentration of approximately 1.6 mg/ml in standard phosphate buffered saline (PBS). The total volume of the collagen disk was approximately 10 μl. For experimental treatments, the collagen disks were supplemented with either 50 ng of apelin peptide or 100 ng of VEGF-C protein prior to polymerization at 37° C. for 30 minutes. The VEGF-C was a positive control for these experiments. (Recombinant Human VEGF-C (Cys156Ser), R&D Systems, cat # 752-vc). Apelin peptide was synthesized by Sigma-Genosys (>90% purity). […]
(§1) The samples were incubated with primary antibody (Prox1, Research Diagnostics, cat # RDI-102PA30, diluted to 2 μg/ml final concentration) for 4 hours at room temperature or overnight at 4° C. […] Both the lymphatic cell number as well as the number of lymphatic branches were determined.
Assays for lymphatic cell number were carried out in areas of the CAM that were close to the location of the collagen disk as described above. Since Prox1 specifically stains lymphatic endothelial cell nuclei, the number of cells in the lymphatic branches was counted directly. […]

lymphatic vessels = experiment: In vivo lymphatic vessel branching assay, quail CAM; settings: collagen disk with 50 ng apelin or 100 ng VEGF-C on CAM of 7 day quail embryos, 18 hours
Method: All experiments were carried out using chorioallantoic membranes (CAMs) of quail embryos. Quail embryos used for the lymphatic experiments were 7 days old. Collagen purified from rat tails (Bernanke and Markwald, 1982) was polymerized in 2 mm disks at a final concentration of approximately 1.6 mg/ml in standard phosphate buffered saline (PBS). The total volume of the collagen disk was approximately 10 μl. For experimental treatments, the collagen disks were supplemented with either 50 ng of apelin peptide or 100 ng of VEGF-C protein prior to polymerization at 37° C. for 30 minutes. The VEGF-C was a positive control for these experiments. (Recombinant Human VEGF-C (Cys156Ser), R&D Systems, cat # 752-vc). Apelin peptide was synthesized by Sigma-Genosys (>90% purity).
For lymphangiogenesis assays, the CAMs of 7 day quail embryos were exposed, in ovo, and the collagen disks were placed directly onto the surface of the CAM. […]
as §1
Both blood vessels and lymphatic vessels were stained with the QH-1 antibody. […] The number of lymphatic vessels branching away from blood vessels (towards the collagen disk) were counted. […]

Molecule: CC(C)c1cc(/C=C(\C#N)C(=O)NCCCc2ccccc2)cc(C(C)C)c1O [SU1498]
- effect on VEGF-mediated proliferation ([1]; VEGF 10 ng/ml): partially inhibits VEGF-mediated proliferation
- effect on apelin-mediated proliferation ([1]; apelin 10 ng/ml): no significant effect on apelin-mediated proliferation
- effect on VEGF-mediated proliferation ([2]; SU1498 25 μM, VEGF 50 ng/ml): partially inhibits VEGF-mediated proliferation
- effect on apelin-mediated proliferation ([2]; SU1498 25 μM, apelin 10 ng/ml): no significant effect on apelin-mediated proliferation

Molecule: [Cl][Co][Cl] [Cobalt Chloride]
- apelin expression (apelin expression; 150 μM Cobalt Chloride, 4 hours, fetal rat cardiac myocytes): significantly increased
- apelin expression (apelin expression; Cobalt chloride 30 μg/ml, rat cardiac myocytes): induced

Molecule: Cc1c[nH]c(/C=C2\C(=O)Nc3ccccc32)c1CCC(=O)O [SU5402]
- effect on FGF-mediated proliferation ([2]; SU5402 20 μM, FGF 50 ng/ml): partially inhibited the proliferative effect of FGF
- effect on apelin-stimulated cellular proliferation ([2]; SU5402 20 μM, apelin 10 ng/ml): did not have a significant effect on apelin-stimulated cellular proliferation

Molecule: VEGF
- endothelial cell migration (cells per field) (BAE/APJ#2 cells): increase in migration
- cellular proliferation of endothelial cells ([2]; apelin 10 ng/ml or VEGF 50 ng/ml, 0.1 ng/ml to 1 μg/ml (FIG. 17)): proliferate upon the addition of VEGF or apelin

B1: VEGF-C: Recombinant Human VEGF-C (Cys156Ser), R&D Systems; positive control for lymphangiogenesis (protein, UniProt P49767 112-227, looked up, variant C156S)
Vascular endothelial growth …: AHYNTEILKSIDNEWRKTQCMPREVCIDVGKEFGVATNTFFKPPSVSVYRCGGCCNSEGLQCMNTSTSYLSKTLFEITVPLSQGPKPVTISFANHTSCRCMSKLDVYRQVHSIIRR
- lymphatic cell number (Prox1 positive nuclei) [3]: mitogenic factor for lymphatic endothelial cells
- number of lymphatic vessels branching away from blood vessels (lymphatic vessels): positive regulator of lymphatic branching angiogenesis
